According to PubChem BioAssay (NCI):
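Five compound concentrations were applied to cells in 96-well plates for 48 hours; endpoints were derived by simple linear interpolation of the resulting dose-response curve. TGI: concentration producing complete growth inhibition.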

Tests used:
Test in all cases: NCI anticancer screen, dose series, 48 h
NCI-H23 lung = system: NCI-H23 lung
UACC-257 melanoma = system: UACC-257 melanoma
CAKI-1 renal = system: CAKI-1 renal
UO-31 renal = system: UO-31 renal
SR leukemia = system: SR leukemia
SF-539 CNS = system: SF-539 CNS
SF-295 CNS = system: SF-295 CNS
SK-MEL-2 melanoma = system: SK-MEL-2 melanoma
HT29 colon = system: HT29 colon
OVCAR-5 ovarian = system: OVCAR-5 ovarian
M14 melanoma = system: M14 melanoma
U251 CNS = system: U251 CNS
OVCAR-8 ovarian = system: OVCAR-8 ovarian
NCI/ADR-RES ovarian = system: NCI/ADR-RES ovarian
SNB-75 CNS = system: SNB-75 CNS
HCT-15 colon = system: HCT-15 colon
TK-10 renal = system: TK-10 renal
SK-MEL-28 melanoma = system: SK-MEL-28 melanoma
MDA-N = system: MDA-N
MCF7 breast = system: MCF7 breast
BT-549 breast = system: BT-549 breast
NCI-H522 lung = system: NCI-H522 lung
NCI-H460 lung = system: NCI-H460 lung
RPMI-8226 leukemia = system: RPMI-8226 leukemia
SF-268 CNS = system: SF-268 CNS
SNB-19 CNS = system: SNB-19 CNS
HCC-2998 colon = system: HCC-2998 colon
COLO 205 colon = system: COLO 205 colon
HOP-62 NSCLC = system: HOP-62 NSCLC
MOLT-4 leukemia = system: MOLT-4 leukemia
HCT-116 colon = system: HCT-116 colon
MDA-MB-231 breast = system: MDA-MB-231 breast
A498 renal = system: A498 renal
T-47D breast = system: T-47D breast
OVCAR-3 ovarian = system: OVCAR-3 ovarian
HS 578T breast = system: HS 578T breast
SN12C renal = system: SN12C renal
KM12 colon = system: KM12 colon
PC-3 prostate = system: PC-3 prostate
HOP-92 NSCLC = system: HOP-92 NSCLC
SK-OV-3 ovarian = system: SK-OV-3 ovarian
UACC-62 melanoma = system: UACC-62 melanoma
IGROV1 ovarian = system: IGROV1 ovarian
DU-145 prostate = system: DU-145 prostate
LOX IMVI melanoma = system: LOX IMVI melanoma
SW-620 colon = system: SW-620 colon
OVCAR-4 ovarian = system: OVCAR-4 ovarian
ACHN renal = system: ACHN renal
MALME-3M melanoma = system: MALME-3M melanoma
786-0 renal = system: 786-0 renal
SK-MEL-5 melanoma = system: SK-MEL-5 melanoma
A549 NSCLC = system: A549 NSCLC
MDA-MB-435 = system: MDA-MB-435
EKVX NSCLC = system: EKVX NSCLC
K-562 leukemia = system: K-562 leukemia
RXF 393 renal = system: RXF 393 renal
CCRF-CEM leukemia = system: CCRF-CEM leukemia
NCI-H226 lung = system: NCI-H226 lung

Compound `C[N+]1(Cc2ccc(Cl)c(Cl)c2)CCCC1C1CCCN(Cc2ccc(Cl)c(Cl)c2)C1` (centres undefined) has a TGI (NCI-H23 lung) greater than 100 µM, a TGI (UACC-257 melanoma) greater than 100 µM and a TGI (CAKI-1 renal) greater than 100 µM. It also gave a TGI (UO-31 renal) greater than 100 µM, a TGI (SR leukemia) greater than 100 µM and a TGI (SF-539 CNS) greater than 100 µM. It also gave a TGI (SF-295 CNS) greater than 100 µM, a TGI (SK-MEL-2 melanoma) greater than 100 µM and a TGI (HT29 colon) greater than 100 µM. The TGI (OVCAR-5 ovarian) was greater than 100 µM, the TGI (M14 melanoma) was greater than 100 µM and the TGI (U251 CNS) was greater than 100 µM. It also gave a TGI (OVCAR-8 ovarian) greater than 100 µM, a TGI (NCI/ADR-RES ovarian) greater than 100 µM and a TGI (SNB-75 CNS) greater than 100 µM. For the same compound, the TGI (HCT-15 colon) was greater than 100 µM, the TGI (TK-10 renal) was greater than 100 µM and the TGI (SK-MEL-28 melanoma) was greater than 100 µM. For the same compound, the TGI (MDA-N) was greater than 100 µM, the TGI (MCF7 breast) was greater than 100 µM and the TGI (BT-549 breast) was greater than 100 µM. For the same compound, the TGI (NCI-H522 lung) was greater than 100 µM, the TGI (NCI-H460 lung) was greater than 100 µM and the TGI (RPMI-8226 leukemia) was greater than 100 µM. It also gave a TGI (SF-268 CNS) greater than 100 µM, a TGI (SNB-19 CNS) greater than 100 µM and a TGI (HCC-2998 colon) greater than 100 µM. It also gave a TGI (COLO 205 colon) greater than 100 µM, a TGI (HOP-62 NSCLC) greater than 100 µM and a TGI (MOLT-4 leukemia) greater than 100 µM. The TGI (HCT-116 colon) was greater than 100 µM, the TGI (MDA-MB-231 breast) was greater than 100 µM and the TGI (A498 renal) was greater than 100 µM. For the same compound, the TGI (T-47D breast) was greater than 100 µM, the TGI (OVCAR-3 ovarian) was greater than 100 µM and the TGI (HS 578T breast) was greater than 100 µM. It also gave a TGI (SN12C renal) greater than 100 µM, a TGI (KM12 colon) greater than 100 µM and a TGI (PC-3 prostate) greater than 100 µM. For the same compound, the TGI (HOP-92 NSCLC) was greater than 100 µM, the TGI (SK-OV-3 ovarian) was greater than 100 µM and the TGI (UACC-62 melanoma) was greater than 100 µM. The TGI (IGROV1 ovarian) was greater than 100 µM, the TGI (DU-145 prostate) was greater than 100 µM and the TGI (LOX IMVI melanoma) was greater than 100 µM. The TGI (SW-620 colon) was greater than 100 µM, the TGI (OVCAR-4 ovarian) was greater than 100 µM and the TGI (ACHN renal) was greater than 100 µM. The TGI (MALME-3M melanoma) was greater than 100 µM, the TGI (786-0 renal) was greater than 100 µM and the TGI (SK-MEL-5 melanoma) was greater than 100 µM. For the same compound, the TGI (A549 NSCLC) was greater than 100 µM, the TGI (MDA-MB-435) was greater than 100 µM and the TGI (EKVX NSCLC) was greater than 100 µM. It also gave a TGI (K-562 leukemia) greater than 100 µM and a TGI (RXF 393 renal) greater than 100 µM.

`Nc1ccc(CCSSCCc2ccc(N)cc2)cc1` gave a TGI (NCI-H23 lung) greater than 72.6 µM, a TGI (UACC-257 melanoma) of 51.7 µM and a TGI (CAKI-1 renal) greater than 85.2 µM. It also gave a TGI (UO-31 renal) greater than 82.8 µM, a TGI (SR leukemia) of 31.6 µM and a TGI (SF-539 CNS) of 63.5 µM. For the same compound, the TGI (SF-295 CNS) was greater than 100 µM, the TGI (SK-MEL-2 melanoma) was 43.4 µM and the TGI (HT29 colon) was 49.7 µM. It also gave a TGI (OVCAR-5 ovarian) of 83.5 µM, a TGI (M14 melanoma) greater than 74.2 µM and a TGI (U251 CNS) of 41.6 µM. It also gave a TGI (OVCAR-8 ovarian) greater than 88.2 µM, a TGI (NCI/ADR-RES ovarian) greater than 74.4 µM and a TGI (SNB-75 CNS) greater than 94.5 µM. For the same compound, the TGI (HCT-15 colon) was greater than 67.9 µM, the TGI (TK-10 renal) was greater than 100 µM and the TGI (SK-MEL-28 melanoma) was greater than 78.6 µM. The TGI (CCRF-CEM leukemia) was greater than 100 µM, the TGI (MDA-N) was greater than 79.6 µM and the TGI (MCF7 breast) was greater than 100 µM. It also gave a TGI (BT-549 breast) of 79.1 µM, a TGI (NCI-H522 lung) of 34.9 µM and a TGI (NCI-H460 lung) of 86.8 µM. For the same compound, the TGI (RPMI-8226 leukemia) was greater than 81.8 µM, the TGI (SF-268 CNS) was 45.2 µM and the TGI (SNB-19 CNS) was greater than 100 µM. The TGI (HCC-2998 colon) was 34.4 µM, the TGI (COLO 205 colon) was greater than 100 µM and the TGI (HOP-62 NSCLC) was greater than 100 µM. The TGI (MOLT-4 leukemia) was 14.7 µM, the TGI (HCT-116 colon) was 31.9 µM and the TGI (MDA-MB-231 breast) was greater than 91.1 µM. It also gave a TGI (A498 renal) greater than 94.7 µM, a TGI (T-47D breast) greater than 92.3 µM and a TGI (OVCAR-3 ovarian) greater than 88.4 µM. For the same compound, the TGI (HS 578T breast) was 66.4 µM, the TGI (SN12C renal) was 60.1 µM and the TGI (KM12 colon) was greater than 100 µM. The TGI (PC-3 prostate) was greater than 78.9 µM, the TGI (HOP-92 NSCLC) was greater than 100 µM and the TGI (SK-OV-3 ovarian) was greater than 100 µM. For the same compound, the TGI (UACC-62 melanoma) was 89.1 µM, the TGI (IGROV1 ovarian) was greater than 100 µM and the TGI (DU-145 prostate) was greater than 87.4 µM. It also gave a TGI (LOX IMVI melanoma) greater than 59.8 µM, a TGI (SW-620 colon) greater than 76.8 µM and a TGI (OVCAR-4 ovarian) greater than 100 µM. For the same compound, the TGI (ACHN renal) was greater than 93.2 µM, the TGI (MALME-3M melanoma) was 41.6 µM and the TGI (786-0 renal) was 36.6 µM. The TGI (SK-MEL-5 melanoma) was greater than 52.7 µM, the TGI (A549 NSCLC) was greater than 100 µM and the TGI (NCI-H226 lung) was greater than 100 µM. For the same compound, the TGI (MDA-MB-435) was greater than 86.9 µM, the TGI (EKVX NSCLC) was greater than 100 µM and the TGI (K-562 leukemia) was greater than 62.3 µM. The TGI (RXF 393 renal) was 44.6 µM.
